pIC50: −log10 of the molar value. Like-named read-outs stand apart in the source and are kept apart here.
Tests used:
[1] = system: HCT-116 (human colorectal carcinoma); assay: MTT cytotoxicity assay, HCT-116; type: cell-based; settings: for pIC50: Homo sapiens, HCT-116, 72 h, MTT, 72 h exposure, three independent experiments, read-out: Cytotoxic activity IC50 (95% CI) HCT-116; for Selectivity index HCT-116: ratio of cytotoxicity L929 / HCT-116
Method: (§1) In this study, the IC50 was obtained in micromolar concentrations, using the colourimetric MTT (3-(4,5-dimethylthiazol-2-yl)-2,5-diphenyl tetrazolium bromide)) assay, and doxorubicin was used as the positive control. […] The activity against the non-tumoural murine fibroblast cell line L929 was also evaluated in order to study the cytotoxicity behaviour of each compound and to understand their respective relative selectivity. The selectivity index was obtained using the ratio of measured cytotoxicity between the L929 cell line and each of the cancer cell lines, and the results are presented in Table 2.
(§2) The in vitro cytotoxicity activity of the compounds was evaluated by the colorimetric MTT (3-(4,5-dimethylthiazol-2-yl)-2,5-diphenyl tetrazolium bromide)) assay using the following tumor cell lines: HCT-116 (colon carcinoma), PC3 (prostate), SNB-19 (glioblastoma), K-562 (myelogenous leukaemia), HL-60 (human promyelocytic leukaemia), B16 (murine melanoma), A549 (human lung carcinoma), KG1 (human acute myeloid leukaemia), and RAJI (human Burkitt’s lymphoma), which were provided by the National Cancer Institute (Bethesda, MD, USA). The L929 cell line (mouse fibroblast L cells NCTC clone 929) employed in this study as a control cell line was obtained from the American Type Culture Collection (Manassas, VA, USA). The cell lines (Table S4) were maintained in flasks containing RPMI 1640 or DMEM medium supplemented with 10% bovive fetal sérum, 100 U/mL penicillin, and 100 μg/mL streptomycin at 37 °C and in 5% CO2 atmosphere. The compounds tested were dissolved in DMSO. Doxorubicin served as the positive control. Cell treatments were performed with three replicates and the cells were mycoplasma free. After 72 h incubation, 100 μL of MTT solution (0.5 mg/mL) was added to each well, and the cells were incubated for 3 h. The supernatant was removed and 100 μL of DMSO was added and the absorbance at 595 nm was measured using Victor Nivo Multimode plate reader (PerkinElmer, Waltham, MA, USA). The absorbances obtained were used to calculate the IC50 values by nonlinear regression employing appropriate statistical software.
(§3) The in vitro cytotoxicity activity of compounds was evaluated by the colorimetric MTT (3-(4,5-dimethylthiazol-2-yl)-2,5-diphenyl tetrazolium bromide)) assay using tumor cell lines: HCT-116 (colon carcinoma), PC3 (prostate), SNB-19 (glioblastoma), K-562 (myelogenous leukaemia), HL-60 (human promyelocytic leukaemia), B16 (murine melanoma), A549 (human lung carcinoma), KG1 (human acute myeloid leukaemia) and RAJI (human Burkitt's lymphoma), which were provided by the National Cancer Institute (Bethesda, MD, USA). The L929 cell line (mouse fibroblast L cells NCTC clone 929) employed in this study as a control cell line was obtained from the American Type Culture […]
(§4) Collection (Manassas, VA, USA). Cell lines (Table 01) were maintained in flasks containing RPMI 1640 or DMEM medium supplemented with 10% bovive fetal sérum, 100 U/mL penicillin, and 100 μg/mL streptomycin at 37 °C and 5% CO2 atmosphere.
(§5) Compounds tested were dissolved in DMSO. Doxorubicin served as positive control. Cell treatments were performed with three replicates and cells were mycoplasma-free. After 72 h incubation, 100 μL of MTT solution (0.5 mg/mL) was added to each well, and cells were incubated for 3 h. The supernatant was removed and 100 μL of DMSO was added and the absorbance at 595 nm was measured using Victor Nivo Multimode plate reader

[2] = system: KG1 (human acute myeloid leukaemia); assay: MTT cytotoxicity assay, KG1; type: cell-based; settings: for pIC50: Homo sapiens, MTT, 72 h exposure, three independent experiments, read-out: Cytotoxic activity IC50 (95% CI) KG1; for Selectivity index KG1: ratio of cytotoxicity L929 / KG1
Method: as §1, §2, §3, §4, §5

[3] = system: RAJI (human Burkitt’s lymphoma); assay: MTT cytotoxicity assay, RAJI; type: cell-based; settings: for pIC50: MTT, 72 h exposure, three independent experiments, read-out: Cytotoxic activity IC50 (95% CI) RAJI; for Selectivity index RAJI: ratio of cytotoxicity L929 / RAJI
Method: as §1, §2, §3, §4, §5

[4] = system: HL60 (human pro-myelocytic leukaemia); assay: MTT cytotoxicity assay, HL60; type: cell-based; settings: for pIC50: MTT, 72 h exposure, three independent experiments, read-out: Cytotoxic activity IC50 (95% CI) HL60; for Selectivity index HL60: ratio of cytotoxicity L929 / HL60
Method: as §1, §2, §3, §4, §5

[5] = system: SNB-19 (human astrocytoma); assay: MTT cytotoxicity assay, SNB-19; type: cell-based; settings: for pIC50: Homo sapiens, SNB-19, MTT, 72 h exposure, three independent experiments, read-out: Cytotoxic activity IC50 (95% CI) SNB-19; for Selectivity index SNB-19: ratio of cytotoxicity L929 / SNB-19
Method: as §1, §2, §3, §4, §5

[6] = system: A549 (human lung carcinoma); assay: MTT cytotoxicity assay, A549; type: cell-based; settings: for pIC50: Homo sapiens, A549, MTT, 72 h exposure, three independent experiments, read-out: Cytotoxic activity IC50 (95% CI) A549; for Selectivity index A549: ratio of cytotoxicity L929 / A549
Method: as §1, §2, §3, §4, §5

[7] = system: K-562 (human chronic myeloid leukaemia); assay: MTT cytotoxicity assay, K-562; type: cell-based; settings: for pIC50: Homo sapiens, K562, MTT, 72 h exposure, three independent experiments, read-out: Cytotoxic activity IC50 (95% CI) K-562; for Selectivity index K-562: ratio of cytotoxicity L929 / K-562
Method: as §1, §2, §3, §4, §5

[8] = MTT cytotoxicity assay, L929 control line; type: cell-based, mouse; settings: mouse, L929 fibroblast cells (non-tumoral control line), 72 h exposure, read-out: Cytotoxic activity IC50 (95% CI) L929
Method: as §1, §2, §3, §4, §5

B16 (murine melanoma) = assay: MTT cytotoxicity assay, B16; type: cell-based; settings: for pIC50: Mus musculus, MTT, 72 h exposure, three independent experiments, read-out: Cytotoxic activity IC50 (95% CI) B16; for Selectivity index B16: ratio of cytotoxicity L929 / B16
Method: as §1, §2, §3, §4, §5

[9] = system: PC3 (human prostate adenocarcinoma); assay: MTT cytotoxicity assay, PC3; type: cell-based; settings: for pIC50: Homo sapiens, MTT, 72 h exposure, three independent experiments, read-out: Cytotoxic activity IC50 (95% CI) PC3; for Selectivity index PC3: ratio of cytotoxicity L929 / PC3
Method: as §1, §2, §3, §4, §5

Compound	pIC50 [1]	Selectivity index HCT-116 [1]	pIC50 [2]	Selectivity index KG1 [2]	pIC50 ([3]; Homo sapiens, Raji, 72 h)	Selectivity index RAJI [3]	pIC50 ([4]; Homo sapiens, HL-60, 72 h)	Selectivity index HL60 [4]	pIC50 [5]	Selectivity index SNB-19 [5]	pIC50 [6]	Selectivity index A549 [6]	pIC50 [7]	Selectivity index K-562 [7]	IC50 at 72 h [8]	pIC50 (B16 (murine melanoma))	Selectivity index B16 (B16 (murine melanoma))	pIC50 [9]	Selectivity index PC3 [9]	pIC50 [4]	other results
CC1(C)OC2=C(CC1Cn1cc(CNC3=CC(=O)c4c(I)cccc4C3=O)nn1)C(=O)C(=O)c1ccccc12 (stereo not drawn) [Compound 21a, 3-((4-(((5-iodo-1,4-dioxo-1,4-dihydronaphthalen-2-yl)amino)methyl)-1H-1,2,3-triazol-1-yl)methyl)-2,2-dimethyl-3,4-dihydro-2H-benzo[h]chromene-5,6-dione]	5.57	0.7	5.38	0.4	5.24	0.3	5.99	1.8	5.53	0.6	5.56	0.7	5.30	0.4	1860 nM	6.02	1.9	5.21	0.3	–	–
COc1cccc2c1C(=O)C(NCc1cn(C3C4=C(OC3(C)C)c3ccccc3C(=O)C4=O)nn1)=CC2=O (stereo not drawn) [Compound 19c, 3-(4-(((8-methoxy-1,4-dioxo-1,4-dihydronaphthalen-2-yl)amino)methyl)-1H-1,2,3-triazol-1-yl)-2,2-dimethyl-2,3-dihydronaphtho[1,2-b]furan-4,5-dione]	5.80	5.7	5.32	1.9	6.05	9.9	5.97	8.6	5.09	1.1	5.51	3.0	5.51	3.0	9170 nM	5.76	5.3	5.46	2.6	–	pIC50 [3]: 6.03
O=C1C(=O)c2ccccc2C2=C1CC(Cn1cc(CNC3=CC(=O)c4cccc(OCc5ccccc5)c4C3=O)nn1)O2 (stereo not drawn) [Compound 20d, 2-((4-(((8-benzyloxy-1,4-dioxo-1,4-dihydronaphthalen-2-yl)amino)methyl)-1H-1,2,3-triazol-1-yl)methyl)-2,3-dihydronaphtho[1,2-b]furan-4,5-dione]	5.21	1.5	5.05	1.1	5.36	2.2	5.43	2.5	4.99	0.9	4.56	0.3	4.98	0.9	9430 nM	5.04	1.0	4.89	0.7	–	–
CC1(C)OC2=C(C(=O)C(=O)c3ccccc32)C1n1cc(CNC2=CC(=O)c3c(I)cccc3C2=O)nn1 (stereo not drawn) [Compound 19a, 3-(4-(((5-iodo-1,4-dioxo-1,4-dihydronaphthalen-2-yl)amino)methyl)-1H-1,2,3-triazol-1-yl)-2,2-dimethyl-2,3-dihydronaphtho[1,2-b]furan-4,5-dione]	6.00	1.2	5.86	0.9	5.69	0.6	6.36	2.8	6.00	1.2	5.59	0.5	5.92	1.0	1210 nM	5.73	0.6	5.44	0.3	–	–
CC1(C)OC2=C(C(=O)C(=O)c3ccccc32)C1n1cc(CNC2=CC(=O)c3cccc(OCc4ccccc4)c3C2=O)nn1 (stereo not drawn) [Compound 19d, 3-(4-(((8-benzyloxy-1,4-dioxo-1,4-dihydronaphthalen-2-yl)amino)methyl)-1H-1,2,3-triazol-1-yl)-2,2-dimethyl-2,3-dihydronaphtho[1,2-b]furan-4,5-dione]	6.28	4.3	5.53	0.8	5.90	1.8	6.52	6.7	6.12	3.0	5.95	2.1	5.98	2.2	2290 nM	6.03	2.5	5.91	1.9	6.47	–
CC1(C)OC2=C(CC1Cn1cc(CNC3=CC(=O)c4cc5ccccc5cc4C3=O)nn1)C(=O)C(=O)c1ccccc12 (stereo not drawn) [Compound 21e, 3-((4-(((1,4-dioxo-1,4-dihydroanthracen-2-yl)amino)methyl)-1H-1,2,3-triazol-1-yl)methyl)-2,2-dimethyl-3,4-dihydro-2H-benzo[h]chromene-5,6-dione]	5.76	1.0	5.38	0.4	5.17	0.3	6.30	6.6	5.88	1.3	6.06	1.9	5.43	0.5	1710 nM	5.54	0.6	5.54	0.6	6.59	–
